The source made the active and inactive calls. No cut-off for these calls is given here.

The test system of assay [1] is Nucleic Acid. The assay is described as follows: Binding affinity to Escherichia coli pUC19 DNA assessed as form 2 DNA level at 0.463 mM after 4.95 hrs by agarose gel electrophoresis. Format: nucleic-acid assay.
Assay [2] relates to Nucleic Acid. Nature of the assay: Binding affinity to Escherichia coli pUC19 DNA assessed as form 2 DNA level at 0.698 mM after 23.80 hrs by agarose gel electrophoresis. Format: nucleic-acid assay.
The test system of assay [3] is Nucleic Acid. Nature of the assay: Binding affinity to Escherichia coli pUC19 DNA assessed as form 1 DNA level at 0.463 mM after 27.33 hrs by agarose gel electrophoresis. Format: nucleic-acid assay.
Assay [4] has as its system Nucleic Acid. The assay is described as follows: Binding affinity to Escherichia coli pUC19 DNA assessed as form 2 DNA level at 0.320 mM after 23.12 hrs by agarose gel electrophoresis. Format: nucleic-acid assay.
The subject of assay [5] is Nucleic Acid. The assay is described as follows: Binding affinity to Escherichia coli pUC19 DNA assessed as form 1 DNA level at 0.130 mM after 5.42 hrs by agarose gel electrophoresis. Format: nucleic-acid assay.
For a further assay, the system named is HL-60. The assay is described as follows: Growth inhibition of human HL60 cells at 100 uM after 72 hrs by MTT assay. The assay is classed as functional. Further details: scale not given: the % may be the effect or the level left.
In assay [6] the test system is Nucleic Acid. Nature of the assay: Binding affinity to Escherichia coli pUC19 DNA assessed as form 1 DNA level at 0.262 mM after 28.18 hrs by agarose gel electrophoresis. The assay is classed as nucleic-acid assay.
For assay [7], the system named is Nucleic Acid. The assay is described as follows: Binding affinity to supercoiled Escherichia coli pUC19 DNA assessed as formation of nicked circular DNA at 1.10 mM at pH 6.0 for 24 hrs in presence of sodium azide by agarose gel electrophoresis. Format: nucleic-acid assay.
Assay [8] deals with Nucleic Acid. Nature of the assay: Binding affinity to Escherichia coli pUC19 DNA assessed as form 2 DNA level at 0.349 mM after 23.02 hrs by agarose gel electrophoresis. The assay is classed as nucleic-acid assay.
Assay [9] has as its system Nucleic Acid. The assay is described as follows: Binding affinity to Escherichia coli pUC19 DNA assessed as form 2 DNA level at 0.262 mM after 26.15 hrs by agarose gel electrophoresis. Format: nucleic-acid assay.
Assay [10] relates to Nucleic Acid. The assay is described as follows: Binding affinity to Escherichia coli pUC19 DNA assessed as form 2 DNA level at 0.262 mM after 28.18 hrs by agarose gel electrophoresis. Format: nucleic-acid assay.
Assay [11] relates to Nucleic Acid. The assay is described as follows: Binding affinity to Escherichia coli pUC19 DNA assessed as form 1 DNA level at 0.349 mM by agarose gel electrophoresis. The assay is classed as nucleic-acid assay.
In assay [12] the test system is Nucleic Acid. Nature of the assay: Binding affinity to Escherichia coli pUC19 DNA assessed as form 1 DNA level at 0.698 mM after 10.70 hrs by agarose gel electrophoresis. The assay is classed as nucleic-acid assay.
The test system of assay [13] is Nucleic Acid. Nature of the assay: Binding affinity to Escherichia coli pUC19 DNA assessed as form 1 DNA level at 0.463 mM after 13.07 hrs by agarose gel electrophoresis. Format: nucleic-acid assay.
In assay [14] the test system is Nucleic Acid. The assay is described as follows: Binding affinity to supercoiled Escherichia coli pUC19 DNA assessed as formation of nicked circular DNA at 1.10 mM at pH 6.0 for 24 hrs in presence of tertiary butyl hydroxide by agarose gel electrophoresis. Format: nucleic-acid assay.
Assay [15] deals with Nucleic Acid. Nature of the assay: Binding affinity to Escherichia coli pUC19 DNA assessed as form 1 DNA level at 0.262 mM by agarose gel electrophoresis. Format: nucleic-acid assay.
The subject of assay [16] is Nucleic Acid. Nature of the assay: Binding affinity to Escherichia coli pUC19 DNA assessed as form 1 DNA level at 0.175 mM after 9.07 hrs by agarose gel electrophoresis. Format: nucleic-acid assay.
In assay [17] the test system is Nucleic Acid. Nature of the assay: Binding affinity to Escherichia coli pUC19 DNA assessed as form 2 DNA level at 0.175 mM after 29.33 hrs by agarose gel electrophoresis. Format: nucleic-acid assay.
Assay [18] relates to Nucleic Acid. Nature of the assay: Binding affinity to Escherichia coli pUC19 DNA assessed as form 2 DNA level at 0.262 mM after 25.02 hrs by agarose gel electrophoresis. Format: nucleic-acid assay.
Assay [19] concerns Nucleic Acid. Nature of the assay: Binding affinity to Escherichia coli pUC19 DNA assessed as form 2 DNA level at 0.463 mM after 27.33 hrs by agarose gel electrophoresis. Format: nucleic-acid assay.
For assay [20], the system named is Nucleic Acid. Nature of the assay: Binding affinity to Escherichia coli pUC19 DNA assessed as form 2 DNA level at 0.349 mM after 26.15 hrs by agarose gel electrophoresis. Format: nucleic-acid assay.
Assay [21] relates to Nucleic Acid. The assay is described as follows: Binding affinity to Escherichia coli pUC19 DNA assessed as form 1 DNA level at 0.349 mM after 28.18 hrs by agarose gel electrophoresis. The assay is classed as nucleic-acid assay.
Assay [22] deals with Nucleic Acid. Nature of the assay: Binding affinity to Escherichia coli pUC19 DNA assessed as form 1 DNA level at 0.320 mM after 25.35 hrs by agarose gel electrophoresis. The assay is classed as nucleic-acid assay.
Assay [23] relates to Nucleic Acid. The assay is described as follows: Binding affinity to Escherichia coli pUC19 DNA assessed as form 1 DNA level at 0.175 mM by agarose gel electrophoresis. The assay is classed as nucleic-acid assay.

With `Cl.Cl.NNC1=NCC(O)CN1` (centres undefined), the Activity in the assay on Nucleic Acid [1] was 7.36%; with Nucleic Acid [2], 45%; in the assay with Nucleic Acid [3] it was 59.4%; with Nucleic Acid [4] it was 73.4%; in the assay with Nucleic Acid [5], 85%; in the assay with HL-60, 70%. Also, the Activity turned out to be 84.1% in the assay with Nucleic Acid [6]; 27.7% in the assay with Nucleic Acid [8]; 13.7% in the assay with Nucleic Acid [9]; 15.9% in the assay with Nucleic Acid [10]; 97.5% with Nucleic Acid [11]; 78.2% with Nucleic Acid [12]. The Activity with Nucleic Acid [13] worked out at 77.5%; in the assay with Nucleic Acid [15], 97.2%; in the assay with Nucleic Acid [16], 93.9%; with Nucleic Acid [17] it was 23.7%; with Nucleic Acid [18], 11.9%; in the assay on Nucleic Acid [19], 40.6%. The Activity came out at 31.5% in the assay with Nucleic Acid [20], 65.6% with Nucleic Acid [21], 64% with Nucleic Acid [22] and 97.1% in the assay on Nucleic Acid [23]. Also, the result in the assay on Nucleic Acid [7] and in the assay with Nucleic Acid [14] was inactive.

The values are drawn from ChEMBL document CHEMBL1154064, “Synthesis and DNA cleavage activity of 2-hydrazinyl-1,4,5,6-tetrahydropyrimidine containing hydroxy group” (2009).
